From patent US12714718B2, “Treatment of 22Q11.2 deletion syndrome with cannabidiol” (priority 2018, dated 2026)

Assays:
[1] = system: children and adolescents with 22q11.2 Deletion Syndrome; test: Aberrant Behavior Checklist-Community (ABC-C), open-label ZYN002 study; format: in vivo, human; conditions: Week 6 and Week 14
Description: Aberrant Behavior Checklist-Community (ABC-C): The Aberrant Behavior Checklist-Community, 2nd Edition, was completed by the parent/caregiver, with support from the site staff. The ABC-C asks responders to rate behaviors from “0—not at all a problem” to “3—the problem is severe in degree” across 58 questions.
Each application consisted of one sachet of ZYN002 CBD 4.2% concentration, containing 2.98 g of gel. […]

[2] = system: children and adolescents with 22q11.2 Deletion Syndrome; test: Anxiety, Depression, and Mood Scale (ADAMS), open-label ZYN002 study; format: in vivo, human; conditions: Week 6 and Week 14
Description: (§1) Methodology: This was an open-label study to assess the safety, tolerability and efficacy of CBD administered as ZYN002, a transdermal gel, for the treatment of child and adolescent patients with 22q11.2 deletion syndrome. Male and female patients with 22q11.2 deletion syndrome were treated in Period 1 for 14 weeks with 250 mg and 500 mg of CBD (patients ≤35 kg received 250 mg CBD daily; patients >35 kg received 500 mg CBD daily). For patients with less than a 25% improvement from baseline in the ABC-C irritability subscale, the investigator could increase the total daily dose at Week 6 of treatment. Twenty male and female patients, ages 6 to <18 years, received ZYN002.
Anxiety, Depression, and Mood Scale (ADAMS): The Anxiety, Depression, and Mood Scale was completed by the parent/caregiver, with support from the site staff. The ADAMS was used as a comprehensive assessment of anxiety, depression, and mood among the patients. […]
(§2) Statistical Methods: Descriptive statistics (mean, median, standard deviation, minimum, and maximum) for continuous data and number (n) and percentage (%) for categorical data were determined for all efficacy and safety parameters.

[3] = system: children and adolescents with 22q11.2 Deletion Syndrome; test: Clinical Global Impression-Improvement (CGI-I), open-label ZYN002 study; format: in vivo, human
Description: as §1
Clinical Global Impressions Scale-Improvement: The Clinical Global Impression Scale, Improvement (CGI-I), is commonly used in clinical trials as they allow the clinician to utilize the history from the caregiver and incorporate the score into a clinical rating for the severity of symptoms. CGI-I is a 7-point scale that is used to assess how much the patient's behavioral symptoms associated with 22q11.2 deletion syndrome have improved, or worsened, relative to a baseline assessment at the beginning of the treatment.
Each application consisted of one sachet of ZYN002 CBD 4.2% concentration, containing 2.98 g of gel. At Week 6, if the patient had less than a 25% improvement from baseline in the ABC-C irritability subscale, the investigator increased the dose as follows: • Patients who weigh ≤35 kg receiving a total daily dose of 250 mg CBD had their daily dose increased to 500 mg. Each application consisted of two sachets of ZYN002 CBD 4.2% concentration, containing 2.98 g of gel. • Patients >35 kg received 250 mg CBD applied Q12H (±2 hours); total daily dose of 500 mg CBD. […]
as §2

[4] = system: children and adolescents with 22q11.2 Deletion Syndrome; test: Pediatric Anxiety Rating Scale (PARS), open-label ZYN002 study; format: in vivo, human; conditions: Week 14
Description: as §1
Pediatric Anxiety Rating Scale (PARS): The PARS is a clinician-rated caregiver interview that covers 61 behaviors related to anxiety (Riddle M A, et al, The Pediatric Anxiety Rating Scale (PARS) Development and Psychometric Properties, J. Am. Acad. Child Adolesc. Psychiatry, 2002, 4(9):1061-1069). The PARS provides broad coverage of separation anxiety, social phobia, and generalized anxiety. […] The interviewer assesses the severity by quantifying the frequency and degree of interference and avoidance in family, school and community settings. Each of seven severity items is scored on a scale of 1 to 5, with 5 being the most severe and frequent. […]

[5] = system: children and adolescents with 22q11.2 Deletion Syndrome; test: Safety and tolerability monitoring, open-label ZYN002 study; format: in vivo, human; conditions: up to 14 weeks
Description: as §1
Safety Monitoring: Patient safety was monitored at each study visit using standard measures, including physical and neurological exams, examination of skin at application sites for irritation, vital signs, 12-lead ECGs, the C-SSRS, safety laboratory tests, and AE monitoring.
Each application consisted of one sachet of ZYN002 CBD 4.2% concentration, containing 2.98 g of gel. At Week 6, if the patient had less than a 25% improvement from baseline in the ABC-C irritability subscale, the investigator increased the dose as follows: • Patients who weigh ≤35 kg receiving a total daily dose of 250 mg CBD had their daily dose increased to 500 mg. […]

[6] = cited from earlier work
[7] = system: adults with social phobia; conditions: crossover trial; cited from earlier work
children and adults = conditions: in vivo; cited from earlier work

With `C=C(C)C1CCC(C)=CC1c1c(O)cc(CCCCC)cc1O` (stereo not shown) [CBD, 2-[3-methyl-6-(1-methylethenyl)-2-cyclohexen-1-yl]-5-pentyl-1,3-benzenediol] the “ABC-C all five subscales vs baseline, in words” value [1] was “statistically and clinically meaningful improvements”, the “ADAMS total score and all five subscales vs baseline, in words” value [2] was “statistically significant improvements” and the “patients being much improved or very much improved (CGI-I)” value [3] was 62.5%. The “patients rated by clinicians as improved, much-improved or very much improved (CGI-I)” value [3] was “Seventy-five”, the “CGI-I, majority of patients, in words” value ([3]; Week 6 and Week 14) was “clinically meaningful improvements” and the “PARS vs baseline, in words” value [4] was “statistically significant improvements”. For the same compound, the “tolerability of transdermal administration” value [5] was “well tolerated”, the “solubility in water, in words” value [6] was “virtually insoluble in water” and the “physiological and cognitive indicators of anxiety” value [7] was “significant and clinically meaningful reductions”. The “tolerability in children and adults” value (children and adults) was “generally well tolerated”.
